Results: BindingDB's records for doi:10.1021/acs.biochem.6b00943 (University of Maryland, 2017)
“And” between values parts separate entries of the source, which are not always exact repeats. Identical values can stand only once.

Biological target: Reverse transcriptase protein (Human immunodeficiency virus 1, UniProt Q9WJQ1)
Experiment: HIV-1 RT Inhibitory Assay
Settings: 25 °C
Procedure: The final pH of the reactions was 7.7. After extension for 3 min, the reactions were stopped by adding 12.5 μL of 2× gel loading buffer and the samples were resolved in a 16% denaturing polyacrylamide−7 M urea gel.

Which IC50 does the source give for `Cc1ccnc2c1NC(=O)c1cccnc1N2C1CC1` [BI-RG-587] here?
The IC50 was 16 µM and 4.3 µM.
